Measurements published in ChEMBL document CHEMBL1201862, “PubChem BioAssay data set” (2004).
Calls of active or inactive are those of the source.

How the values were obtained:
Vero [1] = assay: host cell cytotoxicity of antiviral hits, dose response, cytotoxicity control for West Nile virus antiviral project, secondary assay (AID 1650); format: functional; settings: Chlorocebus sabaeus
Vero [2] = assay: cells; format: functional; settings: Chlorocebus sabaeus
[3] = Shn3 3'UTR reporter inhibitors, dose response, cell-based, Clone20 osteoblasts, firefly luciferase, cherry-picked (AID 624132); format: functional;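 also: firefly luciferase luminescence from reporter carrying the Shn3 3'UTR in osteoblasts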
[4] = control 3'UTR Renilla luciferase suppression, dose response, counter-screen for Shn3 inhibitor project, cell-based, Clone20-Shn3RL, cherry-picked (AID 624133); format: functional
Prothrombin = Prothrombin (Homo sapiens, UniProt P00734); assay: Thrombin 1536 HTS Dose Response Confirmation. [Related pubchem assays: 1046 (Thrombin 1536 HTS; hits were confirmed in this assay)]; format: functional
Estrogen receptor beta [5] = molecular target: T1, Estrogen receptor beta (Homo sapiens, UniProt Q92731);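 also: recombinant ER-beta bound to coactivator SRC1 peptide in presence of estradiol agonist; inhibitors block coactivator peptide binding and lower the FRET signal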
T1 sequence (Q92731 whole entry): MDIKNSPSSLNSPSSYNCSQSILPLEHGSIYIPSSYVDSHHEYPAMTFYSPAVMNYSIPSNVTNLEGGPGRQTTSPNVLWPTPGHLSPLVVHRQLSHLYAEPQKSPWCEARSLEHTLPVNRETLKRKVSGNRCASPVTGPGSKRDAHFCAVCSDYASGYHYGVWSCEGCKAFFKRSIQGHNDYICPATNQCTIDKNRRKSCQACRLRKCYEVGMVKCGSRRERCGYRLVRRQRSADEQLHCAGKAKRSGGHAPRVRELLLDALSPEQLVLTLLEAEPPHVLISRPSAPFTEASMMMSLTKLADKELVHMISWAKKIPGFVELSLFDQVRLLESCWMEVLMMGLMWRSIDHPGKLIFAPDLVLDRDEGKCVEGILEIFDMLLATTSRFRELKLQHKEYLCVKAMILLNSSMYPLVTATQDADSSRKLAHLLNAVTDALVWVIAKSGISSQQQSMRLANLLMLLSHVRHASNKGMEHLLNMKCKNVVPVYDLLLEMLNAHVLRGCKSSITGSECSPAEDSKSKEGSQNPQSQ

Estrogen receptor beta [6] = molecular target: T1, Estrogen receptor beta; assay: ERβ–SRC-3 coactivator interaction inhibitors, confirmation, orthogonal assay, biochemical, ELISA, streptavidin-HRP readout (AID 1060)
Cytochrome P450 3A4 = Cytochrome P450 3A4 (Homo sapiens, UniProt P08684); settings: Potency;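 also: confirmatory qHTS run detecting inhibitors and substrates of CYP3A4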
Chain of Cytochrome P450 3A4 (P08684 whole entry): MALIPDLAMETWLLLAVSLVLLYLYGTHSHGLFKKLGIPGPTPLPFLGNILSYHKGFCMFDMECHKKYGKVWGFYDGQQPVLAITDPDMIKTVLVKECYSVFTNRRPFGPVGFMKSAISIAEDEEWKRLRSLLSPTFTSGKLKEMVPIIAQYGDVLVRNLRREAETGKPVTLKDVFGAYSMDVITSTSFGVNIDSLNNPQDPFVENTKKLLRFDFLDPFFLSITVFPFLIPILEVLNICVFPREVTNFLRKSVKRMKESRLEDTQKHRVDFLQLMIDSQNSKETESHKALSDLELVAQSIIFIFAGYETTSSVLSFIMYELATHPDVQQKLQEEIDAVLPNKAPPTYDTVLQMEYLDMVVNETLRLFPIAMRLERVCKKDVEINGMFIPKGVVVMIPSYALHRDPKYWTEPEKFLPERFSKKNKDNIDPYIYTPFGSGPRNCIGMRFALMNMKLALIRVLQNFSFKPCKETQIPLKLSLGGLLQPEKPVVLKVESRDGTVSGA

Large T antigen = Large T antigen (Simian virus 40, UniProt P03070); format: functional, Betapolyomavirus macacae;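 also: Confirmatory-stage PubChem screen for compounds that inhibit SV40 T antigen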
Chain of Large T antigen (P03070 whole entry): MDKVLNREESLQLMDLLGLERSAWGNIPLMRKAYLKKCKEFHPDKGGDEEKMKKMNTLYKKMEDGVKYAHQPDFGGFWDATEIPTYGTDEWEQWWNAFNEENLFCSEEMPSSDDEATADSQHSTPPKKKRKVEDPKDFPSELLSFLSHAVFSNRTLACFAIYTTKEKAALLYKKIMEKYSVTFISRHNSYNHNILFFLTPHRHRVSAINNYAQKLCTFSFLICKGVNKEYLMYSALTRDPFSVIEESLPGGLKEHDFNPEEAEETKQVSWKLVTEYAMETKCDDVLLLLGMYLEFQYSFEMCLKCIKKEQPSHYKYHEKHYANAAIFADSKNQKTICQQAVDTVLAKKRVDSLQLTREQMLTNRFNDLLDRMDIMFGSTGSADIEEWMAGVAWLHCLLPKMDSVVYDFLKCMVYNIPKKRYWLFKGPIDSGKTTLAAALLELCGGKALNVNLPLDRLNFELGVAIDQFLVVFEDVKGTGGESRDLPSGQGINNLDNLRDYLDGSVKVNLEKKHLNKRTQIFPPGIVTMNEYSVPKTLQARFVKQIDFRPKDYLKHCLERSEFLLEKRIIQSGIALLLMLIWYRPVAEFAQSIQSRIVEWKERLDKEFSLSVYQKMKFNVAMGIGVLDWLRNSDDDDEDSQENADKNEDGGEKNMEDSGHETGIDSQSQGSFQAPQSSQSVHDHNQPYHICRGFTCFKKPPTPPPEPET

[7] = molecular target: Induced myeloid leukemia cell differentiation protein Mcl-1 (Homo sapiens, UniProt Q07820); format: functional
Chain of Induced myeloid leukemia cell differentiation protein Mcl-1 (Q07820 whole entry): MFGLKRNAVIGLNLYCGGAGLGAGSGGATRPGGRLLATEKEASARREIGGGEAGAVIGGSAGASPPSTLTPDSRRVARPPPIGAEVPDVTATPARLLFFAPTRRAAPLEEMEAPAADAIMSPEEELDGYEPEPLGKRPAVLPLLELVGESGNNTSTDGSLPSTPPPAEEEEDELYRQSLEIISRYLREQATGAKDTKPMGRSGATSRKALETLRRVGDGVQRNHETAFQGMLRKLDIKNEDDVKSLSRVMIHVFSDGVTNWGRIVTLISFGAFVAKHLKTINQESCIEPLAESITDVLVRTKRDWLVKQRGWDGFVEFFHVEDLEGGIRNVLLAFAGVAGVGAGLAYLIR

[8] = molecular target: T2, Histone-lysine N-methyltransferase NSD2 (Homo sapiens, UniProt O96028); format: biochemical
T2 sequence (O96028 whole entry): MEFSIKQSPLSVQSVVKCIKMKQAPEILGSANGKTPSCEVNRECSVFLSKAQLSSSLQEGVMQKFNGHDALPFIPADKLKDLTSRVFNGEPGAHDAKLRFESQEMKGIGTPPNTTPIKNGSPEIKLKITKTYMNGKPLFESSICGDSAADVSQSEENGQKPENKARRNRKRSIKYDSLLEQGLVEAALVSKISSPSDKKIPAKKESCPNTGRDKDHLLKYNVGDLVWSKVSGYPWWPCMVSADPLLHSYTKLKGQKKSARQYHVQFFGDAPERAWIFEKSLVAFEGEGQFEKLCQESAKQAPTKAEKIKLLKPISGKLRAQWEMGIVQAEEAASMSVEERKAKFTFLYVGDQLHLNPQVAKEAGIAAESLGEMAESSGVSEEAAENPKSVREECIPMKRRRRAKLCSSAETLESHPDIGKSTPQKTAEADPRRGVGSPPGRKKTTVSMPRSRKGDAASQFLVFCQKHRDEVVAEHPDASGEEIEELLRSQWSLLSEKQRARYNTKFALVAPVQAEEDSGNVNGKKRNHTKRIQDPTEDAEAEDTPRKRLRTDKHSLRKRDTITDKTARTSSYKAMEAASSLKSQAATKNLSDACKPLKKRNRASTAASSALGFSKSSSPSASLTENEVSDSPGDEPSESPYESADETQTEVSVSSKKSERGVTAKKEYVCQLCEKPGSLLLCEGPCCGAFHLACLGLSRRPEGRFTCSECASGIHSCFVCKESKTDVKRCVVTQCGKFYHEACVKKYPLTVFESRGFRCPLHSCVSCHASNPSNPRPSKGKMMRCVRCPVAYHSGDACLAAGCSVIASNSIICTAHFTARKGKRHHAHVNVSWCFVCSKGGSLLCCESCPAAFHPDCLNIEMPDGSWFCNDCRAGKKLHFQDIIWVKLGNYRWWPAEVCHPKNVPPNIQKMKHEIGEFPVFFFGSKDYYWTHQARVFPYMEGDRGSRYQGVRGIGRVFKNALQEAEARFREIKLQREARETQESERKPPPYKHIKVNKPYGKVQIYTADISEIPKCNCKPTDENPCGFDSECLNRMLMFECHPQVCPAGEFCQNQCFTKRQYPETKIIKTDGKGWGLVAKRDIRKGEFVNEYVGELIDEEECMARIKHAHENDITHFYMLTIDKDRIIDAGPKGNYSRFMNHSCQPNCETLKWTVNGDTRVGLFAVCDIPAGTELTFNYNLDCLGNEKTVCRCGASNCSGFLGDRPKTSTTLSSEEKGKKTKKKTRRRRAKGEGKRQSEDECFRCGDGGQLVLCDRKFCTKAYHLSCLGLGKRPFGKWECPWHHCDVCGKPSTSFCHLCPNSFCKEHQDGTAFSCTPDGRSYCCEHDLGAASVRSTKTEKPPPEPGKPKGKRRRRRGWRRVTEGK

[9] = molecular target: T3, Acyl-homoserine lactone acylase PvdQ (Pseudomonas aeruginosa (strain LESB58), UniProt Q9I194); assay: P. aeruginosa PvdQ acylase inhibitors, dose response, biochemical, fluorescence, plate reader and imaging, cherry-picks (AID 493231)
T3 sequence (Q9I194 whole entry): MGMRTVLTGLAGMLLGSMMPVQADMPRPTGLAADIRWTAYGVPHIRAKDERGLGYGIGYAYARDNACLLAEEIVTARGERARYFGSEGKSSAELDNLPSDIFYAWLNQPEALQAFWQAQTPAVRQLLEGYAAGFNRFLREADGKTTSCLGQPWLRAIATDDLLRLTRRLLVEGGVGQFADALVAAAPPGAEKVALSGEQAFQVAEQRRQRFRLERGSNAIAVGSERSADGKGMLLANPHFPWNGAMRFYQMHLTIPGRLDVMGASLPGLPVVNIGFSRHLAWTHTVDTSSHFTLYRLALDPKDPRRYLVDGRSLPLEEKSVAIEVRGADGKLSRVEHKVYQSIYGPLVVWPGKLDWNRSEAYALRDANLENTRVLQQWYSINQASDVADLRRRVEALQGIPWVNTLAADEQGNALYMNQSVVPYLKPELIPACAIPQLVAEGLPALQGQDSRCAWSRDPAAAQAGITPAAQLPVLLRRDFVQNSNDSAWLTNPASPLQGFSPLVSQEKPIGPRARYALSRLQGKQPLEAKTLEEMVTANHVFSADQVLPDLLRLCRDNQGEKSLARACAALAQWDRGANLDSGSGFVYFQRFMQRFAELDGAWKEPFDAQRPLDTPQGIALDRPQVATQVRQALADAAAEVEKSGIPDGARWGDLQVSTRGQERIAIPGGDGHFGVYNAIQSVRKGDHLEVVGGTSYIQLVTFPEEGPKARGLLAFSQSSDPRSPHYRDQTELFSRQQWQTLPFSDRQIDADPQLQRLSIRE

[10] = molecular target: Dual specificity tyrosine-phosphorylation-regulated kinase 1A (Rattus norvegicus, UniProt Q63470); format: biochemical, Homo sapiens
Bcl-2-like protein 10 = molecular target: T4, Bcl-2-like protein 10 (Homo sapiens, UniProt Q9HD36); assay: displacers of TR3 peptide from Bcl-B, primary screen, selectivity assay for Bfl-1 inhibitor project, biochemical, fluorescence polarization, FITC-TR3 peptide (AID 748);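 also: fluorescence polarization from a fluorescein-labelled TR3 peptide binding purified Bcl-B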
T4 sequence (Q9HD36 whole entry): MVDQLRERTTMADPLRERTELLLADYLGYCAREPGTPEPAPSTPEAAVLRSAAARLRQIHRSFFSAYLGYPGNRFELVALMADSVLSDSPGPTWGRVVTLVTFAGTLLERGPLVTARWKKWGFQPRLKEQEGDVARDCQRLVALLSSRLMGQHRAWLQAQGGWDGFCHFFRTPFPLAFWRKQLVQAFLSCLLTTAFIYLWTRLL

Paired box protein Pax-8 = Paired box protein Pax-8 (Homo sapiens, UniProt Q06710); assay: inhibitors of PAX8-driven TPO luciferase reporter, dose response, RMG-I cells, cherry-pick (AID 687027); format: functional, cell-based;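 also: luciferase reporter driven by Pax8 target thyroperoxidase promoter measured by SteadyGlo luminescence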
Chain of Paired box protein Pax-8 (Q06710 whole entry): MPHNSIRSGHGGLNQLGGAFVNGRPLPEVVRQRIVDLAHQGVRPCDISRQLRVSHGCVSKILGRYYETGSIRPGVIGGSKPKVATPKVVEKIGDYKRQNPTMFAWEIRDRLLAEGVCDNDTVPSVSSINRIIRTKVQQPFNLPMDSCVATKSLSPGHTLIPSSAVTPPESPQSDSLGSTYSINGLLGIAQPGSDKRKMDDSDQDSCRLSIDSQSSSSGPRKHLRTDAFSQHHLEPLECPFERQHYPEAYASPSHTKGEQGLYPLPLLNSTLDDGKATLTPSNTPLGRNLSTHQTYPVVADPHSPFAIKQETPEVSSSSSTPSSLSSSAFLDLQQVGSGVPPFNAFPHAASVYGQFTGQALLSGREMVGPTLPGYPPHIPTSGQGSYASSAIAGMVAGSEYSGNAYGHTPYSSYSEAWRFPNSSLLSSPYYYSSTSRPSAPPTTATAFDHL

[11] = inhibitors of intracellular T. cruzi replication, confirmation, NIH3T3 host cells, beta-gal luminescence (AID 2044); format: functional, cell-based;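 also: intracellular parasites grown in NIH/3T3 mouse fibroblasts as host cells; luminescent beta-galactosidase reporter signal from transgenic T. cruzi replicating inside host cells; inhibitors lower the luminescence signal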
[12] = cytotoxicity toward NIH3T3 fibroblasts, dose response, counter-screen, cell-based, ATP luminescence, mouse fibroblasts (AID 2010); format: functional;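 also: cells exposed to compound for about 90 hours before reading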
[13] = non-specific cell cytotoxicity, dose response, cytotoxicity control for PAX8 inhibitor project, plate reader, dry powder samples (AID 743021); format: functional, cell-based
[14] = IGROV1 ovarian cancer cell cytotoxicity, dose response, PAX8 inhibitor project, plate reader, dry powder samples (AID 743043); format: functional, cell-based; settings: IGROV-1
[15] = NIH:OVCAR-3 ovarian cancer cell cytotoxicity, dose response, PAX8 inhibitor project, plate reader, dry powder samples (AID 743044); format: functional, cell-based
[16] = A2780 ovarian cancer cell cytotoxicity, dose response, cytotoxicity control, plate reader, dry powder samples (AID 743046); format: functional, cell-based
[17] = cytotoxicity in OVCAR8 ovarian cancer cells, dose response, PAX8 project, cell-based, plate reader, dry powder samples (AID 743197); format: functional; settings: OVCAR-8
[18] = HepG2 cell cytotoxicity, dose response, cytotoxicity control, cherry-picked samples (AID 1159577); format: functional, cell-based
[19] = P. falciparum Dd2 growth inhibitors, dose response, SYBR Green, cherry-picked samples (AID 1159567); format: functional, cell-based

Cc1ccc(Cn2ccc(NC(=O)c3nn(C)cc3[N+](=O)[O-])n2)cc1
CC50 (Vero [1]): 11.6 µM (active)
CC50 (Vero [2]): 13.8 µM (active)
AC50 [3]: 4.09 µM (active)
AC50 [4]: 27.3 µM (active)

CC(Nc1nc(O)c2c(ncn2Cc2ccccc2)n1)C(=O)O (stereo unspecified)
IC50 (Prothrombin): > 50 µM (not active)

Cc1cc2n(c1)CCn1c(C)ccc1-2
IC50 (Estrogen receptor beta [5]): 3.91 µM (active)
IC50 (Estrogen receptor beta [6]): 3.06 µM (not active)

COC(=O)NC(c1cccc(C)c1)C(C(C)=O)C(=O)OC (stereo unspecified)
AC50 (Cytochrome P450 3A4): 7.94 µM (inconclusive)

COc1ccc(S(=O)(=O)N2CCOCC2)cc1NC(=O)COC(=O)c1ccc(C)s1
IC50 (Prothrombin): 0.408 µM (active)

Cc1ccc(C2=NC(=O)/C(=C/c3cc(O)c(O)c(Br)c3)S2)cc1
IC50 (Large T antigen): 4.91 µM (active)
IC50 [7]: 0.767 µM (active)
AC50 [8]: 3.45 µM (active)

Cc1cc(-c2ccc(/N=N/c3cc(S(=O)(=O)O)c4ccccc4c3N)c(C)c2)ccc1/N=N/c1cc(S(=O)(=O)O)c2ccccc2c1N
AC50 (Cytochrome P450 3A4): 25.1 µM (inconclusive)

c1cnc2ccc(-c3ccc4ncccc4c3)cc2c1
AC50 [9]: 10.7 µM (active)
AC50 [10]: 0.189 µM (active)

COc1ccc(N(C(=O)c2ccco2)S(=O)(=O)c2cccc([N+](=O)[O-])c2)cc1
IC50 (Prothrombin): 2.18 µM (active)

COCc1cc(C2SCC(=O)Nc3c2c(O)nn3C(C)C)ccc1OC (stereo unspecified)
IC50 (Bcl-2-like protein 10): > 100 µM (inactive)

CC(=O)Nc1ccc(OC(=O)CC2SC(=O)NC2=O)cc1 (stereo unspecified)
IC50 (Bcl-2-like protein 10): > 100 µM (inactive)
IC50 (Estrogen receptor beta [5]): 8.53 µM (active)
IC50 (Estrogen receptor beta [6]): < 0.023 µM (not active)

COc1ccc(/C=C2\CN(Cc3ccccc3)C/C(=C\c3ccc(OC)cc3OC)C2=O)c(OC)c1
AC50 (Paired box protein Pax-8): 10.4 µM (active)
EC50 [11]: 1.83 µM (active)
EC50 [12]: 9.01 µM (active)
AC50 [13]: 42.3 µM (active)

CC(C)=CCC/C(C)=C/CN1C(=O)N(c2ccc(F)cc2)[C@H]2C[C@@H](c3ccccc3)[C@@H](C)[C@@H](C(=O)N3CCOCC3)C[C@H]21
AC50 (Paired box protein Pax-8): 2.66 µM (active)
AC50 [13]: 42 µM (active)

COc1ccc(S(=O)(=O)Nc2ccc3c(c2)C(=O)N([C@H](C)CO)C[C@H](C)[C@@H](CN(C)S(=O)(=O)c2ccc(F)cc2)OCCCC[C@H](C)O3)cc1
AC50 (Paired box protein Pax-8): 3.96 µM (active)
AC50 [14]: 37.1 µM (active)
AC50 [15]: 12.5 µM (active)
AC50 [16]: 34.7 µM (active)
AC50 [17]: 22.9 µM (active)

C[C@@H]1CCCCO[C@H](CN(C)S(=O)(=O)c2ccc(Cl)cc2)[C@@H](C)CN([C@@H](C)CO)C(=O)c2cc(NS(=O)(=O)c3ccc(F)cc3)ccc2O1
AC50 (Paired box protein Pax-8): 7.67 µM (active)
AC50 [15]: 39 µM (active)
AC50 [16]: 11.5 µM (active)
AC50 [17]: 62.8 µM (active)

COc1ccc(C#Cc2ccc([C@@H]3[C@H](CO)N4CCCCN(Cc5ccccc5F)C[C@@H]34)cc2)cc1
AC50 [18]: 9.38 µM (active)
AC50 [19]: 0.756 µM (active)

O=S(=O)(c1ccc(F)cc1)N1C[C@@H]2N[C@H](C1)[C@@H]2c1ccc(-c2ccc(F)cc2)cc1
AC50 [18]: 11 µM (active)
AC50 [19]: 7.37 µM (active)

O=C(Nc1cc(F)ccc1F)N1CCCCN2[C@@H](CO)[C@@H](c3ccc(-c4ccccc4)cc3)[C@@H]2C1
AC50 [18]: 9.99 µM (active)
AC50 [19]: 2.56 µM (active)
